We go through 10 molecules from patent publication US6686349B2, “Substituted tetracyclic pyrroloquinolone derivatives useful as phosphodiesterase inhibitors” (Ortho-McNeil Pharmaceutical, Inc., priority 2001, dated 2004).

Test system in the first data set: not listed separately
Nature of the data set: In vivo testing following the procedure of Carter et al. The note with it: J. Urology 1998, 160, 242-246. As for the experimental part:
Following the procedure disclosed by Carter et al., (Carter, A. J., Ballard, S. A., and Naylor, A. M.) in The Journal of Urology 1998, 160, 242-246, compound #8 was tested as active for in vivo activity.
`CN1CC(=O)N2[C@H](c3ccc4c(c3)OCO4)c3[nH]c4ccccc4c(=O)c3[C@@H]2C1=O` [Compound 8, 11-Benzo[1,3]dioxol-5-yl-3-methyl-2,3,4a,11-tetrahydro-10H-3,10,11a-triaza-benzo[b]fluorene-1,4,5-trione]: the in vivo activity entry is “active”.

The target in a further data set is PDEV (UniProt O76074). Nature of the data set: In vitro determination of Ki for phosphodiesterase inhibitors (PDEV). It counts as biochemical, rabbit and human tissues. The following applies: 30 nM 3H-cGMP, 30° C. for 90 minutes; Ki is equivalent to the IC50 value. As for the experimental part:
Cyclic Nucleotide Phosphodiesterase (PDE) Assay
PDEV was isolated from rabbit and human tissues according to the protocol described by Boolell et al. (Boolell, M., Allen, M. J., Ballard, S. A., Ge[o-Attee, Muirhead, G. J., Naylor, A. M., Osterloh, I. H., and Gingell, C) in International Journal of Impotence Research 1996 8, 47-52 with minor modifications.
Briefly, rabbit or human tissues were homogenized in an ice-cold buffer solution containing 20 mM HEPES (pH 7.2), 0.25M sucrose, 1 mM EDTA, and 1 mM PMSF. The homogenates were centrifuged at 100,000 g for 60 minutes at 4° C. The supernatant was filtered through […] filter and loaded on a Pharmacia Mono Q anion exchange column (1 ml bed volume) that was equilibrated with 20 mM HEPES, 1 mM EDTA and 0.5 mM PMSF. After washing out unbound proteins, the enzymes were eluted with a linear gradient of 100-600 mM NaCl in the same buffer (35 to 50 ml total, depending on the tissue. Enzymes from the skeletal muscle, corpus cavernosum, retina, heart and platelet were eluted with 35, 40, 45, 50, and 50 ml respectively.) The column was run at a flow rate of 1 ml/min and 1 ml fractions were collected. The fractions comprising various PDE activities were pooled separately and used in later studies. […]
In Vitro Determination of Ki for Phosphodiesterase Inhibitors
The assays were adapted to a 96-well format. Phosphodiesterase was assayed in 5 mM MgCl2, 15 mM Tris HCl (pH 7.4), 0.5 mg/ml bovine serum albumin, 30 nM ^3H-cGMP and test compound at various concentrations. The amount of enzyme used for each reaction was such that less than 15% of the initial substrate was converted during the assay period. For all measurements, the test compound was dissolved and diluted in 100% DMSO (2%DMSO in assay). The total volume of the assay was 100 μl. The reaction mixture was incubated at 30° C. for 90 minutes. The reaction was stopped by boiling for 1 minute and then immediately cooled by transfer to an ice bath. To each well was then added 25 μl 1 mg/ml snake venom (Ophiophagus hannah) and the reaction mixture incubating at 30° C. for 10 minute. The reaction was stopped by the addition of 1 ml Bio-Rad AG1-X2 resin slurry (1:3). An aliquot of 200 μl was taken and counted by liquid scintillation.
The % inhibition of the maximum substrate conversion (by the enzyme in the absence of inhibitor) was calculated for each test compound concentration. Using GraphPad Prism's nonlinear regression analysis (sigmoidal dose response), the % inhibition vs log of the test compound concentration was plotted to determine the IC50. Under conditions where substrate concentration<<Km of the enzyme (Km=substrate concentration at which half of the maximal velocity of the enzyme is achieved), Ki is equivalent to the IC50 value.
Following the procedures as described in Examples 10 and 11 herein, representative compounds of the instant invention were tested for PDEV and PDEVI activity. PDEV inhibitory activities for these compounds are presented as Ki values (nM) in the Table 4.
Consider `CN1CC(=O)N2C(C1=O)c1c([nH]c3ccccc3c1=O)[C@H]2c1ccc2c(c1)OCO2` (stereo in doubt) [Compound 9, 11-Benzo[1,3]dioxol-5-yl-3-methyl-2,3,4a,11-tetrahydro-10H-3,10,11a-triaza-benzo[b]fluorene-1,4,5-trione], for which the Ki (commonly the equilibrium dissociation constant of an inhibitor or competing ligand from its target) is 48 nM.
On to `CN1CC(=O)N2[C@H](c3ccc4c(c3)CCO4)c3[nH]c4ccccc4c(=O)c3[C@@H]2C1=O` [Compound 1, 11-(2,3-Dihydro-benzofuran-5-yl)-3-methyl-2,3,4a,11-tetrahydro-10H-3,10,11a-triaza-benzo[b]fluorene-1,4,5-trione], for which the Ki was found to be 7 nM.
In the case of `CN1CC(=O)N2[C@H](c3ccc4c(c3)CCO4)c3[nH]c4ccccc4c(=O)c3[C@H]2C1=O` [Compound 2, 11-(2,3-Dihydro-benzofuran-5-yl)-3-methyl-2,3,4a,11-tetrahydro-10H-3,10,11a-triaza-benzo[b]fluorene-1,4,5-trione], the Ki was 69 nM.
Regarding `CN1CC(=O)N2[C@@H](c3ccc4c(c3)OCO4)c3[nH]c4ccccc4c(=O)c3[C@H]2C1=O` [Compound 3, 11-Benzo[1,3]dioxol-5-yl-3-methyl-2,3,4a,11-tetrahydro-10H-3,10,11a-triaza-benzo[b]fluorene-1,4,5-trione], the inhibitory constant (Ki) was 17 nM.
Regarding `CN1CC(=O)N2[C@@H](c3ccc4c(c3)OCO4)c3[nH]c4ccccc4c(=O)c3[C@@H]2C1=O` [Compound 4, 11-Benzo[1,3]dioxol-5-yl-3-methyl-2,3,4a,11-tetrahydro-10H-3,10,11a-triaza-benzo[b]fluorene-1,4,5-trione], the Ki was 80 nM.
In the case of `O=C1[C@H]2c3c([nH]c4ccccc4c3=O)[C@@H](c3ccc4c(c3)OCO4)N2C(=O)CN1Cc1ccccc1` [Compound 5, 11-Benzo[1,3]dioxol-5-yl-3-benzyl-2,3,4a,11-tetrahydro-10H-3,10,11a-triaza-benzo[b]fluorene-1,4,5-trione], the inhibition constant Ki turned out to be 123 nM.
Still for that read-out and setting: the same measure for `CN1CCC(=O)N2[C@H](c3ccc4c(c3)OCO4)c3[nH]c4ccccc4c(=O)c3[C@@H]2C1=O` [Compound 7, 11-Benzo[1,3]dioxol-5-yl-7-methyl-5b,8,9,12-tetrahydro-7H,11H-7,10a,12-triaza-naphtho[2,3-a]azulene-5,6,10-trione]: 148 nM; for `CN1CC(=O)N2[C@H](c3ccc4c(c3)OCO4)c3[nH]c4ccccc4c(=O)c3[C@@H]2C1=O` [Compound 8, 11-Benzo[1,3]dioxol-5-yl-3-methyl-2,3,4a,11-tetrahydro-10H-3,10,11a-triaza-benzo[b]fluorene-1,4,5-trione]: 14 nM; for `O=C1[C@H]2c3c([nH]c4ccccc4c3=O)[C@@H](c3ccc4c(c3)OCO4)N2C(=O)CN1Cc1ccccn1` [Compound 10, 11-Benzo{1,3]dioxol-5-yl-3-pyridin-2-ylmethyl-2,3,4a,11-tetrahydro-10H-3,10,11a-triaza-benzo[b]fluorene-1,4,5-trione]: 63 nM.

Test system in the next data set: not given
Experiment: not given
The following applies: use of sildenafil; non-selective effects on a variety of tissues; cited from earlier work.
For `CCCc1nn(C)c2c(=O)[nH]c(-c3cc(S(=O)(=O)N4CCN(C)CC4)ccc3OCC)nc12` [sildenafil, 5-[2-ethoxy-5-(4-methylpiperazin-1-ylsulphonyl)phenyl]-1-methyl-3-n-propyl-6,7-dihydro-1H-pyrazolo[4,3-d]pyrimidin-7-one], the undesirable side effects entry was “headache, flushing and disrupted color vision”.
